Experimental data from ChEMBL document CHEMBL5576038, “Design of a novel long-acting dual GLP-1/GIP receptor agonist” (Bioorg Med Chem, 2024).
The source made the active and inactive calls. No cut-off for these calls is given here. Where a SMILES comes first, the peptide text is derived from it. [ ]: non-standard residue; d: D form. The star is where a group is joined. X1 = N[C@@H](CCCCNC(=O)CC[C@H](NC(=O)CCCCCCCCCCCCCCCCCCC(=O)O)C(=O)O)C(=O)NCCCC[C@H](N)C(=O)N[C@@H](CCCCNC(=O)C*)C(=O)O; X4 = O=C(O)CCCCCCCCCCCCCCCCCCC(=O)NCCOCCOCC(=O)N[C@@H](CCC(=O)N[C@@H](CCC(=O)N[C@@H](CCCCNC(=O)C*)C(=O)O)C(=O)O)C(=O)O; X3 = O=C(O)CCCCCCCCCCCCCCCCC(=O)NCCOCCOCC(=O)N[C@@H](CCC(=O)N[C@@H](CCC(=O)N[C@@H](CCCCNC(=O)C*)C(=O)O)C(=O)O)C(=O)O; X5 = O=C(O)CCCCCCCCCCCCCCCCCCC(=O)N[C@@H](CCC(=O)NCCOCCOCC(=O)NCCOCCOCC(=O)N[C@@H](CCCCNC(=O)C*)C(=O)O)C(=O)O; Aib = CC(C)(N)C(=O)O

Columns and labels:
Mus musculus = assay: Glucose-lowering effect in male ICR mouse assessed as reduction in plasma glucose AUC (0 to 72 hrs) at 30 nmol/kg, sc pretreated for 71 hrs followed by […] administration and measured after 60 mins by oral glucose tolerance test; assay type: functional, organism-based
[1] = molecular target: T1, Gastric inhibitory polypeptide receptor (Homo sapiens, UniProt P48546); assay: Agonist activity at human GIPR expressed in CHO cells assessed as increase in cAMP production incubated for 30 mins by Eu-cAMP tracer based microplate reader analysis; assay type: functional, cell-based
T1 sequence (P48546 whole entry): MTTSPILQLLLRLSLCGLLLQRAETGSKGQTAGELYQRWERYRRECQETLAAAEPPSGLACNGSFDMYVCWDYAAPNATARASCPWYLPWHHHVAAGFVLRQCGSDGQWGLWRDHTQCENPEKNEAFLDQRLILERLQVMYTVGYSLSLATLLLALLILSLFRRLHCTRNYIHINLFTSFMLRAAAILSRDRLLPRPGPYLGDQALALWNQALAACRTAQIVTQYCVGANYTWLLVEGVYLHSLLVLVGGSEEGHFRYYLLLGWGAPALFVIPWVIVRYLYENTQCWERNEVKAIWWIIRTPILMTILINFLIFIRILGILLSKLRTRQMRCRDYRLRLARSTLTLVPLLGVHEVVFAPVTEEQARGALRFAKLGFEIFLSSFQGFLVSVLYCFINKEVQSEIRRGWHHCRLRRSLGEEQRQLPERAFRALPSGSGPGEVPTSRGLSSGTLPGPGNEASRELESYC

[2] = molecular target: Glucagon-like peptide 1 receptor (Homo sapiens, UniProt P43220); assay: Agonist activity at human GLP-1R expressed in CHO cells assessed as increase in cAMP production incubated for 30 mins by Eu-cAMP tracer based microplate reader analysis; assay type: functional, cell-based
Sequence of Glucagon-like peptide 1 receptor (P43220 whole entry): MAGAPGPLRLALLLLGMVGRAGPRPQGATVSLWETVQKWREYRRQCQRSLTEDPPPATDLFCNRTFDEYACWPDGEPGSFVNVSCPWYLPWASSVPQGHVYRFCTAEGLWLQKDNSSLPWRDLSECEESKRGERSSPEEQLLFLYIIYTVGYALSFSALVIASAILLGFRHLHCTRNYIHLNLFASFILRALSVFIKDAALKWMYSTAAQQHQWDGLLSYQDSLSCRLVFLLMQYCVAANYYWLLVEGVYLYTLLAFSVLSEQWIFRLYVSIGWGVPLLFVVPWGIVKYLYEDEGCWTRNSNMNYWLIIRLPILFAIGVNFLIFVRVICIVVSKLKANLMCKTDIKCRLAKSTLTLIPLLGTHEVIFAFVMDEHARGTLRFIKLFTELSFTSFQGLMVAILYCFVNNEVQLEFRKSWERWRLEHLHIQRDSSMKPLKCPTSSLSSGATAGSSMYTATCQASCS

| SMILES | Activity (Mus musculus) | EC50 [1] [nM] | EC50 [2] [nM] |
| --- | --- | --- | --- |
| CC(C)C[C@H](NC(=O)[C@H](CC(C)C)NC(=O)[C@H](Cc1c[nH]c2ccccc12)NC(=O)[C@H](CCC(N)=O)NC(=O)[C@@H](NC(=O)[C@H](Cc1ccccc1)NC(=O)[C@H](CC(C)C)NC(=O)[C@H](CSCC(=O)NCCCC[C@H](NC(=O)CC[C@H](NC(=O)CC[C@H](NC(=O)COCCOCCNC(=O)CCCCCCCCCCCCCCCCC(=O)O)C(=O)O)C(=O)O)C(=O)O)NC(=O)[C@H](C)NC(=O)[C@H](C)NC(=O)[C@H](CCC(N)=O)NC(=O)[C@H](CCCCN)NC(=O)[C@H](CCC(=O)O)NC(=O)[C@H](CC(C)C)NC(=O)[C@H](Cc1ccc(O)cc1)NC(=O)[C@H](Cc1ccc(O)cc1)NC(=O)[C@H](CO)NC(=O)[C@H](Cc1ccc(O)cc1)NC(=O)[C@H](CC(=O)O)NC(=O)[C@H](CO)NC(=O)[C@@H](NC(=O)[C@H](Cc1ccccc1)NC(=O)[C@@H](NC(=O)CNC(=O)[C@H](CCC(=O)O)NC(=O)C(C)(C)NC(=O)[C@@H](N)Cc1ccc(O)cc1)[C@@H](C)O)[C@@H](C)O)C(C)C)C(=O)N[C@@H](C)C(=O)NCC(=O)NCC(=O)N1CCC[C@H]1C(=O)N[C@@H](CO)C(=O)N[C@@H](CO)C(=O)NCC(=O)N[C@@H](C)C(=O)N1CCC[C@H]1C(=O)N1CCC[C@H]1C(=O)N1CCC[C@H]1C(=O)N[C@@H](CO)C(N)=O (H-Y[Aib]EGTFTSDYSYYLEKQAAC(X3)LFVQWLLAGGPSSGAPPPS-NH2) | Active | 0.67 | 1.02 |
| CC(C)C[C@H](NC(=O)[C@H](CC(C)C)NC(=O)[C@H](Cc1c[nH]c2ccccc12)NC(=O)[C@H](CCC(N)=O)NC(=O)[C@@H](NC(=O)[C@H](Cc1ccccc1)NC(=O)[C@H](CC(C)C)NC(=O)[C@H](CCCCN)NC(=O)[C@H](C)NC(=O)[C@H](C)NC(=O)[C@H](CCC(N)=O)NC(=O)[C@H](CCCCN)NC(=O)[C@H](CCC(=O)O)NC(=O)[C@H](CC(C)C)NC(=O)[C@H](CSCC(=O)NCCCC[C@H](NC(=O)CC[C@H](NC(=O)CC[C@H](NC(=O)COCCOCCNC(=O)CCCCCCCCCCCCCCCCCCC(=O)O)C(=O)O)C(=O)O)C(=O)O)NC(=O)[C@H](Cc1ccc(O)cc1)NC(=O)[C@H](CO)NC(=O)[C@H](Cc1ccc(O)cc1)NC(=O)[C@H](CC(=O)O)NC(=O)[C@H](CO)NC(=O)[C@@H](NC(=O)[C@H](Cc1ccccc1)NC(=O)[C@@H](NC(=O)CNC(=O)[C@H](CCC(=O)O)NC(=O)C(C)(C)NC(=O)[C@@H](N)Cc1ccc(O)cc1)[C@@H](C)O)[C@@H](C)O)C(C)C)C(=O)N[C@@H](C)C(=O)NCC(=O)NCC(=O)N1CCC[C@H]1C(=O)N[C@@H](CO)C(=O)N[C@@H](CO)C(=O)NCC(=O)N[C@@H](C)C(=O)N1CCC[C@H]1C(=O)N1CCC[C@H]1C(=O)N1CCC[C@H]1C(=O)N[C@@H](CO)C(N)=O (H-Y[Aib]EGTFTSDYSYC(X4)LEKQAAKLFVQWLLAGGPSSGAPPPS-NH2) | Active | 0.064 | 0.25 |
| CC(C)C[C@H](NC(=O)[C@H](CC(C)C)NC(=O)[C@H](Cc1c[nH]c2ccccc12)NC(=O)[C@H](CSCC(=O)NCCCC[C@H](NC(=O)CC[C@H](NC(=O)CC[C@H](NC(=O)COCCOCCNC(=O)CCCCCCCCCCCCCCCCCCC(=O)O)C(=O)O)C(=O)O)C(=O)O)NC(=O)[C@@H](NC(=O)[C@H](Cc1ccccc1)NC(=O)[C@H](CC(C)C)NC(=O)[C@H](CCCCN)NC(=O)[C@H](C)NC(=O)[C@H](C)NC(=O)[C@H](CCC(N)=O)NC(=O)[C@H](CCCCN)NC(=O)[C@H](CCC(=O)O)NC(=O)[C@H](CC(C)C)NC(=O)[C@H](Cc1ccc(O)cc1)NC(=O)[C@H](Cc1ccc(O)cc1)NC(=O)[C@H](CO)NC(=O)[C@H](Cc1ccc(O)cc1)NC(=O)[C@H](CC(=O)O)NC(=O)[C@H](CO)NC(=O)[C@@H](NC(=O)[C@H](Cc1ccccc1)NC(=O)[C@@H](NC(=O)CNC(=O)[C@H](CCC(=O)O)NC(=O)C(C)(C)NC(=O)[C@@H](N)Cc1ccc(O)cc1)[C@@H](C)O)[C@@H](C)O)C(C)C)C(=O)N[C@@H](C)C(=O)NCC(=O)NCC(=O)N1CCC[C@H]1C(=O)N[C@@H](CO)C(=O)N[C@@H](CO)C(=O)NCC(=O)N[C@@H](C)C(=O)N1CCC[C@H]1C(=O)N1CCC[C@H]1C(=O)N1CCC[C@H]1C(=O)N[C@@H](CO)C(N)=O (H-Y[Aib]EGTFTSDYSYYLEKQAAKLFVC(X4)WLLAGGPSSGAPPPS-NH2) | Active | 1.12 | 0.44 |
| CC(C)C[C@H](NC(=O)[C@H](CC(C)C)NC(=O)[C@H](Cc1c[nH]c2ccccc12)NC(=O)[C@H](CSCC(=O)NCCCC[C@H](NC(=O)COCCOCCNC(=O)COCCOCCNC(=O)CC[C@H](NC(=O)CCCCCCCCCCCCCCCCCCC(=O)O)C(=O)O)C(=O)O)NC(=O)[C@@H](NC(=O)[C@H](Cc1ccccc1)NC(=O)[C@H](CC(C)C)NC(=O)[C@H](CCCCN)NC(=O)[C@H](C)NC(=O)[C@H](C)NC(=O)[C@H](CCC(N)=O)NC(=O)[C@H](CCCCN)NC(=O)[C@H](CCC(=O)O)NC(=O)[C@H](CC(C)C)NC(=O)[C@H](Cc1ccc(O)cc1)NC(=O)[C@H](Cc1ccc(O)cc1)NC(=O)[C@H](CO)NC(=O)[C@H](Cc1ccc(O)cc1)NC(=O)[C@H](CC(=O)O)NC(=O)[C@H](CO)NC(=O)[C@@H](NC(=O)[C@H](Cc1ccccc1)NC(=O)[C@@H](NC(=O)CNC(=O)[C@H](CCC(=O)O)NC(=O)C(C)(C)NC(=O)[C@@H](N)Cc1ccc(O)cc1)[C@@H](C)O)[C@@H](C)O)C(C)C)C(=O)N[C@@H](C)C(=O)NCC(=O)NCC(=O)N1CCC[C@H]1C(=O)N[C@@H](CO)C(=O)N[C@@H](CO)C(=O)NCC(=O)N[C@@H](C)C(=O)N1CCC[C@H]1C(=O)N1CCC[C@H]1C(=O)N1CCC[C@H]1C(=O)N[C@@H](CO)C(N)=O (H-Y[Aib]EGTFTSDYSYYLEKQAAKLFVC(X5)WLLAGGPSSGAPPPS-NH2) |  | 3.73 | 0.89 |
| CC(C)C[C@H](NC(=O)[C@H](CC(C)C)NC(=O)[C@H](Cc1c[nH]c2ccccc12)NC(=O)[C@H](CSCC(=O)NCCCC[C@H](NC(=O)[C@@H](N)CCCCNC(=O)[C@@H](N)CCCCNC(=O)CC[C@H](NC(=O)CCCCCCCCCCCCCCCCCCC(=O)O)C(=O)O)C(=O)O)NC(=O)[C@@H](NC(=O)[C@H](Cc1ccccc1)NC(=O)[C@H](CC(C)C)NC(=O)[C@H](CCCCN)NC(=O)[C@H](C)NC(=O)[C@H](C)NC(=O)[C@H](CCC(N)=O)NC(=O)[C@H](CCCCN)NC(=O)[C@H](CCC(=O)O)NC(=O)[C@H](CC(C)C)NC(=O)[C@H](Cc1ccc(O)cc1)NC(=O)[C@H](Cc1ccc(O)cc1)NC(=O)[C@H](CO)NC(=O)[C@H](Cc1ccc(O)cc1)NC(=O)[C@H](CC(=O)O)NC(=O)[C@H](CO)NC(=O)[C@@H](NC(=O)[C@H](Cc1ccccc1)NC(=O)[C@@H](NC(=O)CNC(=O)[C@H](CCC(=O)O)NC(=O)C(C)(C)NC(=O)[C@@H](N)Cc1ccc(O)cc1)[C@@H](C)O)[C@@H](C)O)C(C)C)C(=O)N[C@@H](C)C(=O)NCC(=O)NCC(=O)N1CCC[C@H]1C(=O)N[C@@H](CO)C(=O)N[C@@H](CO)C(=O)NCC(=O)N[C@@H](C)C(=O)N1CCC[C@H]1C(=O)N1CCC[C@H]1C(=O)N1CCC[C@H]1C(=O)N[C@@H](CO)C(N)=O (H-Y[Aib]EGTFTSDYSYYLEKQAAKLFVC(X1)WLLAGGPSSGAPPPS-NH2) |  | 7.2 | 0.29 |
